This is an account of results in patent US6468998B1, “Pyrrolidine compounds and medicinal utilization thereof” (Mitsubishi Pharma Corporation, priority 1998, dated 2002).

Data set [1] has as its system platelet rich plasma (PRP). Description: Platelet aggregation suppressive action (collagen + 5-HT, platelet rich plasma). Type of data set: cell-based, Japanese white rabbit. The conditions noted are these: Oryctolagus cuniculus, rabbit PRP, collagen + 3 μM 5-HT. As to the method:
Platelet Aggregation Suppressive Action
Preparation of platelet rich plasma and a platelet aggregation test were performed according to the method of Born, G. V. R. et al. [Journal of Physiology, Vol. 168, p. 178 (1963)] as in the following. Blood was drawn from the carotid of male Japanese white rabbit with local anesthesia with xylocaine, using a syringe previously added with 3.8% sodium citrate in a 1/10 amount of the blood. This blood was centrifuged at 1000 round/min for 10 min at room temperature to give a platelet rich plasma (PRP) supernatant. This supernatant was further centrifuged at 3000 round/min for 10 min to give a platelet poor plasma (PPP) supernatant. Taking the measurement values of PRP and PPP as 0% aggregation and 100% aggregation, respectively, the platelet aggregation rate (%) was calculated. A test compound (3 μl) was added to 300 μl of PRP and the mixture was incubated at 37° C. for 5 min. Thereto were added, as aggregation inducing substances, collagen at a concentration prohibitive on aggregation by its single administration, and the final concentration of 3 μM of 5-HT, and the aggregation reaction was recorded for 7 min. The effect of the test compound was determined as percent suppression relative to the control group, using the maximum aggregation as an index. The 50% inhibition concentration (IC50) of the test compound was calculated by the nonlinear regression. In the same manner as above, a comparative experiment was conducted for the use of sarpogrelate and cilostazol, respectively as a control compound.

In data set [2] the test system is rat intermittent claudication model. Briefly: Effect on rat intermittent claudication model (femoral artery ligation, treadmill walking distance). Type of data set: in vivo. The following applies: for walking distance 8 days after administration (Δm): 100 mg/kg oral twice a day, change vs value before ligation, mean±SE; for walking distance at day 8 of ligation (in words): control compounds, 100 mg/kg per Table 2. From the text:
Effect on Rat Intermittent Claudication Model
Rat was anesthetized and the right thigh was opened to expose femoral artery, which was ligated with a silk thread at a position nearest possible to the heart (upstream). In addition, a position about 1 cm from the ligation site to the periphery was ligated with a silk thread, making two ligature sites. Starting from the next day of preparation of a model to day 8 therefrom, a drug was orally administered twice a day for 8 days. However, the drug was orally administered only in the evening of the first day of administration and only in the morning of the final administration day. The walking distance was measured one day before model preparation (initial value), day 1, day 5 and day 8 with a treadmill apparatus. Using a gait test table without an angle of inclination, the conveyor advance speed was first set to 15 m/min, and the speed was increased every 5 min by 5 m/min until the animal failed walking three times, based on which the walking distance of the rat was measured. In the same manner as above, a comparative experiment was performed using sarpogrelate and cilostazol, respectively as a control compound.
In the Table, the values are mean±standard error (n=8 but n=6 only for sarpogrelate group).

The subject of data set [3] is lauric acid-induced peripheral arterial obstruction model. Briefly: Lauric acid-induced peripheral arterial obstruction model (preventive effect). The class given is in vivo, Wistar rats. As to the method:
Effect on Lauric Acid-induced Peripheral Arterial Obstruction Model (Preventive Effect) Under anesthesia, lauric acid (0.75 mg/0.15 mL) was injected into the right femoral artery of Wistar rats (6-8 weeks of age). A drug was administered 1 hour before the lauric acid injection. The drug was orally administered twice a day for 8 days. In the same manner as above, a comparative experiment was performed using cilostazol as a control compound. In the Table, the values are mean±standard error (n=12).

Data set [4] shares this test system. Description: Rat lauric acid-induced peripheral arterial obstruction model (therapeutic effect). The class given is in vivo, Wistar rats. As to the method: Effect on Rat Lauric Acid-induced Peripheral Arterial Obstruction Model (Therapeutic Effect) Under anesthesia, lauric acid (0.75 mg/0.15 mL) was injected into the right femoral artery of Wistar rats (6-8 weeks of age). A drug was administered one day after the lauric acid injection. The drug was orally administered twice a day for 7 days. In the same manner as above, a comparative experiment was performed using sarpogrelate and cilostazol as a control compound. In the Table, the values are mean±standard error (n=11).

Data set [5] deals with collateral circulation model. Briefly: Promotion of collateral circulation (femoral artery ligation, ADP-added platelet suspension, leg blood flow). Type of data set: in vivo, rat. Here is the method:
Promotion of Collateral Circulation
A collateral circulation model was prepared by rat femoral artery ligation, and a test drug was orally administered 7 days later. At 1 hour from the test drug administration, ADP-added platelet suspension (200 μM) was administered under anesthesia into the femoral artery (1 mL/kg), and changes in the leg blood flow were measured. In the same manner as above, a comparative experiment was performed using cilostazol as a control compound.
(§1) In the Table, the values are mean±standard error (n=6).

The nature of data set [6]: Effect on heart rate and blood pressure. The class given is in vivo, Wistar rat. As to the method: Effect on Heart Rate and Blood Pressure
A catheter was placed in the femoral artery of Wistar rat, and the blood pressure and heart rate were invasively monitored under no anesthesia or restriction. At 1 hour from the oral administration of the test drug, blood pressure and heart rate were taken. In the same manner as above, a comparative experiment was performed using cilostazol as a control compound.
In the Table, the values are mean±standard error (n=4).

Data set [7] deals with T1, 5-HT2 receptor (Rattus norvegicus, UniProt P14842).
T1 construct: A crude synapse membrane was prepared from a freeze-dried rat cerebral cortex; from tissue; host or cells: rat cerebral cortex (crude synaptic membrane)
T1 sequence (P14842 whole entry): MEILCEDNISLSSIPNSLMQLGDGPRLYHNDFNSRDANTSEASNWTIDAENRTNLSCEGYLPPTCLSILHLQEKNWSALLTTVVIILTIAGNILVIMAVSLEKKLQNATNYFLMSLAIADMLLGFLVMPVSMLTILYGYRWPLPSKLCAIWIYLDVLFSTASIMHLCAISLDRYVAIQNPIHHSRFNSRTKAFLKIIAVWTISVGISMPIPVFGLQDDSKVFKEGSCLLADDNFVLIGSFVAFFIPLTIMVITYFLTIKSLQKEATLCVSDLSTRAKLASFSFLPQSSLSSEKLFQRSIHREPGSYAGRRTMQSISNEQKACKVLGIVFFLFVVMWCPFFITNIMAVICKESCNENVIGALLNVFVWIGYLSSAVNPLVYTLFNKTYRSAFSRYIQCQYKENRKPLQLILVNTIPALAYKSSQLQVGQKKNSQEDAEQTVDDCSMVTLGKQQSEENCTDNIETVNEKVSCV
Description: Affinity for 5-HT2 receptor (binding with 3H-ketanserine). The following applies: rat cerebral cortex crude synapse membrane, 37° C. 20 min. Here is the method: Affinity for 5-HT2 Receptor (Binding with ^3H-ketanserine)
Preparation of a crude synapse membrane and a binding test were performed according to the method of Leysen J. E. et al. [Molecular Pharmacology, Vol. 21, p. 301 (1982)]. A crude synapse membrane was prepared from a freeze-dried rat cerebral cortex, and the membrane specimen and ^3H-ketanserine were incubated in the presence of a test compound at 37° C. for 20 min. After the completion of the reaction, the reaction mixture was immediately filtered by suction on a Whatmann GF/B filter (trademark), and the radioactivity on the filter was measured on a liquid scintillation counter. The amount of non-specific binding was measured in the presence of 10 μM mianserin. The 50% inhibition concentration (IC50) of the test compound was calculated by the nonlinear regression. In the same manner as above, a comparative test was performed using sarpogrelate as a control compound.

Data set [8] deals with erythrocytes. Briefly: Improvement effect of erythrocyte deformation (Nuclepore membrane filter method). Type of data set: in vivo, SHRSP (stroke prone spontaneously hypertensive rat). The following applies: SHRSP. Here is the method:
Improvement Effect of Erythrocyte Deformation
Blood was drawn under anesthesia from SHRSP (stroke prone spontaneously hypertensive rat) loaded with 1% saline for 3 weeks, and the time necessary for 0.5 mL of blood to pass through a filter (pore size 5 μm, Nuclepore) was measured by the Nuclepore membrane filter method of Reid et al., based on which the volume (mL/min) of the erythrocytes passed was calculated. The volume of the erythrocytes passed was taken as an index of erythrocyte deformation. A drug was orally administered 1 hour before drawing the blood. In the same manner as above, a comparative experiment was performed using sarpogrelate as a control compound.
as §1

The mark [9] stands for this setting: 100 mg/kg oral twice a day, first dose 1 h before lauric acid, score 0 normal to 6.
Where [10] appears, read: 100 mg/kg oral twice a day from one day after lauric acid, score 0 normal to 6.
The mark [11] stands for this setting: 100 mg/kg oral, 1 hour, after ADP-added platelet suspension.
Setting [12] is: 100 mg/kg oral, 1 hour, no anesthesia or restriction.

With `O=C1CCc2cc(OCCCCc3nnnn3C3CCCCC3)ccc2N1` [Cilostazol, reference compound], the IC50 in [1] turned out to be 1380 nM. Besides, in data set [2], the “walking distance 8 days after administration (Δm)” value was −149.8 ± 22.7 m and the “walking distance at day 8 of ligation (in words)” value is “increased the walking distance but the increase was not significant”. Moreover, in [3] (setting [9]), the “Lesion score 1 day later” value is listed as 1.8 ± 0.1, the “Lesion score 3 days later” value is recorded as 2.2 ± 0.2, the “Lesion score 5 days later” value worked out at 1.8 ± 0.4 and the “Lesion score 7 days later” value was 2.2 ± 0.5. For the same compound, the “peripheral circulatory disturbance (in words)” value in [3] (100 mg/kg, prior to the lauric acid injection) is reported as “significantly reduced the peripheral circulatory disturbance”. In data set [4] (setting [10]), the “Lesion score 3 days later” value was determined as 1.5 ± 0.3, the “Lesion score 5 days later” value is 1.4 ± 0.4 and the “Lesion score 7 days later” value amounted to 1.3 ± 0.4. Further, in [4] (100 mg/kg, from one day after the lauric acid injection), the “peripheral circulatory disturbance (in words)” value is reported as “significantly reduced the peripheral circulatory disturbance”. Moreover, the “decrease in leg blood flow caused by ADP-added platelet suspension (in words)” value in [5] (100 mg/kg) is listed as “suppressed a decrease in the blood flow on the ligation side only slightly”. In [5] (setting [11]), the “Change in blood flow, control side” value was −27.0 ± 5.0 % and the “Change in blood flow, femoral artery ligation side” value is on record as −63.3 ± 2.4 %. Besides, in data set [6] (setting [12]), the “Change of blood pressure” value was found to be 1.3 ± 1.3 mmHg and the “Change of heart rate” value is listed as 43.8 ± 6.7 beats/min. The “influence on heart rate (in words)” value in data set [6] (300 mg/kg as printed) is on record as “increased the heart rate”.
On to `Cc1ccccc1C(C(=O)N[C@H]1CCN(CCc2ccc(F)cc2)C1)c1ccccc1C` [Example 75, (S)-2,2-bis(2-methylphenyl)-N-(1-(2-(4-fluorophenyl)ethyl)pyrrolidin-3-yl)acetamide], for which the melting point fell in the range of 108 to 110 °C.
In turn, `COc1cccc(CCc2ccccc2OCC(CN(C)C)OC(=O)CCC(=O)O)c1` (centres unmarked) [Sarpogrelate, reference compound] had an IC50 in data set [7] of 27 nM. The IC50 in data set [1] turned out to be 260 nM. In data set [2], the “walking distance 8 days after administration (Δm)” value is recorded as −151.3 ± 35.4 m and the “walking distance at day 8 of ligation (in words)” value is recorded as “increased the walking distance but the increase was not significant”. Also, in [4] (setting [10]), the “Lesion score 1 day later” value is recorded as 1.9 ± 0.2, the “Lesion score 3 days later” value turned out to be 2.3 ± 0.3, the “Lesion score 5 days later” value was 2.1 ± 0.5 and the “Lesion score 7 days later” value was 2.4 ± 0.6. Also, the “volume of the erythrocyte passed, % of the vehicle group” value in [8] (100 mg/kg) amounted to 128%. Further, in [8] (100 mg/kg oral 1 hour before drawing blood, 5 μm filter), the “Volume of erythrocytes passed” value is listed as 1.01 ± 0.10 mL/min.

As a reminder, the IC50 is the concentration that gives 50% inhibition. A word on the melting point: it is the temperature, or range, at which the solid turns liquid.
